Measured values published in patent US10626438B2, “Fluorescent substrates for determining lysine modifying enzyme activity” (The Broad Institute, Inc., priority 2011, dated 2020).

Target: HDAC1 (Homo sapiens, UniProt Q13547)
Settings: for T(½): Broad Substrate A; for mechanism of inhibition (on/off kinetics): progress curves monitored for 4 hours and reversibility by 100-fold dilution

Chain of HDAC1 (Q13547 whole entry): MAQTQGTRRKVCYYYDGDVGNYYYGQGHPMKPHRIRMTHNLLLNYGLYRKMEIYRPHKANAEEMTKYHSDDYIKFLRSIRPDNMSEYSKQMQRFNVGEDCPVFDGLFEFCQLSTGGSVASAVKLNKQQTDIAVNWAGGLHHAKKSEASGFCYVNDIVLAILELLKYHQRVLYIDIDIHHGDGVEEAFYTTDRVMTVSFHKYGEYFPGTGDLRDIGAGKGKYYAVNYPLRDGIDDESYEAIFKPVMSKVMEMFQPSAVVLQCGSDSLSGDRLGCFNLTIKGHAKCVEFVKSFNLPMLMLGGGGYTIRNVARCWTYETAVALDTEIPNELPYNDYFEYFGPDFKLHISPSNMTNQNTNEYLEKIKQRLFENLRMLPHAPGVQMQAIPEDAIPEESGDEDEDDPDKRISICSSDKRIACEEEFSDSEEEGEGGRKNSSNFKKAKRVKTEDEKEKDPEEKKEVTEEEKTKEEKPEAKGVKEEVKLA

CC(=O)Nc1ccc(C(=O)Nc2ccccc2N)cc1 [CI-994]
T(½): 74 min | mechanism of inhibition (on/off kinetics): slow on/slow off inhibitor

O=C(CCCCCCC(=O)Nc1ccccc1)NO [SAHA]
T(½): <4 min | mechanism of inhibition (on/off kinetics): fast on/fast off inhibitor
